# Values of other authors as cited in patent US4436732A, “Medicated compound for treating diseases infected by virus of the herpes group” (priority 1981, dated 1984).
# Settings: known preparations, background; cited from earlier work
compound,measurement,value
O=c1[nH]cc(F)c(=O)[nH]1 [5-fluorouracyl],toxicity,rather toxic
